Measurements reported in BigSolDB 2.1.

O=C1CCCCCCCCCCC1
solubility (mole fraction)
Settings | 278.15 K | 283.15 K | 288.15 K | 293.15 K | 298.15 K | 303.15 K | 308.15 K | 313.15 K
in 1,2-dichloroethane | 0.366 | 0.394 | 0.441 | 0.459 | 0.511 | 0.549 | 0.604 | 0.657
in acetone | 0.142 | 0.184 | 0.229 | 0.285 | 0.362 | 0.432 | 0.517 | 0.618
in acetonitrile | 0.0485 | 0.0711 | 0.104 | 0.16 | 0.225 | 0.322 | 0.466 | 0.637
in cyclohexane | – | 0.21 | 0.263 | 0.308 | 0.366 | 0.441 | 0.515 | 0.598
in ethanol | 0.0472 | 0.0701 | 0.0949 | 0.127 | 0.183 | 0.243 | 0.348 | 0.461
in ethyl acetate | 0.195 | 0.235 | 0.286 | 0.345 | 0.407 | 0.477 | 0.553 | 0.615
in isobutanol | 0.0949 | 0.121 | 0.158 | 0.202 | 0.261 | 0.331 | 0.424 | 0.54
in isopropanol | 0.0967 | 0.122 | 0.155 | 0.2 | 0.262 | 0.341 | 0.445 | 0.55
in methanol | 0.0155 | 0.0267 | 0.04 | 0.0679 | 0.108 | 0.166 | 0.272 | 0.399
in n-butanol | 0.0988 | 0.125 | 0.164 | 0.204 | 0.258 | 0.327 | 0.415 | 0.527
in n-propanol | 0.118 | 0.144 | 0.182 | 0.228 | 0.293 | 0.37 | 0.467 | 0.567
in toluene | 0.33 | 0.378 | 0.41 | 0.454 | 0.501 | 0.553 | 0.607 | 0.675
